Paper PMC6225228, “Design, Synthesis and Evaluation of N-pyrazinylbenzamides as Potential Antimycobacterial Agents” (Molecules : A Journal of Synthetic Chemistry and Natural …, 2018)

Experiments:
[1] = test system: M. kansasii CNCTC My 235/80 (ATCC 12478); test: Antimycobacterial microdilution MABA, M. kansasii; format: cell-based, Mycobacterium kansasii; conditions: Mycobacterium kansasii, ATCC12478; Middlebrook 7H9 with OADC, pH 6.6, MABA; read-out: M. kans. ATCC 12478 MIC
[2] = test system: Mycobacterium smegmatis CCM 4622 (ATCC 607); test: Antimycobacterial microdilution, M. smegmatis; format: cell-based; conditions: Mycolicibacterium smegmatis, Middlebrook 7H9 with OADC, resazurin; read-out: M. smeg. ATCC 607 MIC
[3] = test system: M. avium ssp. avium CNCTC My 80/72 (ATCC 15769); test: Antimycobacterial microdilution MABA, M. avium; format: cell-based, Mycobacterium avium; conditions: Mycobacterium avium, ATCC15769; Middlebrook 7H9 with OADC, pH 6.6, MABA; read-out: M. avium ATCC 15769 MIC
[4] = test system: Mycobacterium tuberculosis H37Rv CNCTC My 331/88 (ATCC 27294); test: Antimycobacterial microdilution MABA, M. tuberculosis; format: cell-based; conditions: Middlebrook 7H9 with OADC growth supplement, pH = 6.6, MABA; for MIC: Mycobacterium tuberculosis, read-out: Mtb H37Rv ATCC 27294 MIC

Row | SMILES | MIC [1] | MIC [2] | MIC [3] | melting point | MIC [4] | Mtb H37Rv ATCC 27294 MIC [4]
1 | COc1ccc(C(=O)Nc2cncc(Cl)n2)cc1 [Compound 3g] | > 100 µg/mL | ≥ 500 µg/mL | > 100 µg/mL | 196.9 to 198.8 °C | > 100 µg/mL | 
2 | Cc1ccc(C(=O)Nc2cncc(Cl)n2)cc1 [Compound 3h] | > 100 µg/mL | ≥ 500 µg/mL | > 100 µg/mL | 169.1 to 170 °C | > 100 µg/mL | >100 µg/mL
3 | O=C(Nc1cncc(Cl)n1)c1ccc(Cl)cc1 [Compound 3l] | > 100 µg/mL | ≥ 500 µg/mL | > 100 µg/mL | 193.8 to 194.7 °C | > 100 µg/mL | >100 µg/mL
